Measurements reported in patent US20090221543A1, “NEW CORTICOSTEROIDS” (NICOX S A., priority 2002, published 2009).
Like-named read-outs stand apart in the source and are kept apart here.

How the values were obtained:
[1] = tested on: bronchoconstriction caused by histamine; experiment: Bronchoconstriction caused by histamine in guinea pigs (sGaw, whole body plethysmography); assay type: in vivo
Protocol: Male guinea pigs weighing between 250 and 300 g for several days before the beginning of the experiment have been accustomed to the restrained and whole-body plethysmograph. Histamine (3 mM dissolved in saline solution 0.9%) has been administered by intranasal route for 20 seconds 24 hours before and 15 minutes after the administration of the tested compounds. NO-Budesonide (635: g/ml) and Budesonide (448: g/ml) dissolved in a mixture (v/v) DMSO 20%, ethanol 10%, saline physiological solution 70%, or the carrier, have been administered to the animals as aerosols, in a sealed room, using a wright nebulizer operating by compressed air at a pressure of 21.38×10^3 Pa (20 p.s.i.) and a flow of 0.5 ml/min. The administration lasted 15 minutes.
To monitor the functionality of the animal airways the “whole body” plethysmography has been used. The animals were watchful and functionality has been determined as specific conductance of the airways (sGaw), expressed in % change of the basal value in the instant immediately after the exposure. To this purpose the animals were provided with a suitable mask and then transferred in a sealed room. The respiratory flow has been determined by a pneumotachograph and a pressure transducer.

glucocorticoid receptor = target: T1, glucocorticoid receptor (Homo sapiens, UniProt P04150); experiment: GR binding assay: displacement of 3H-dexamethasone from glucocorticoid binding sites in human monocytes; conditions: 3H-dexamethasone 50 nM, 37° C., 1 hour
T1 construct: The monocytes have been isolated from human blood by a method based on a density gradient; endogenous in cells; host or cells: primary human blood monocytes (Ficoll-Hypaque isolated), intact cells
T1 sequence (P04150 1-777): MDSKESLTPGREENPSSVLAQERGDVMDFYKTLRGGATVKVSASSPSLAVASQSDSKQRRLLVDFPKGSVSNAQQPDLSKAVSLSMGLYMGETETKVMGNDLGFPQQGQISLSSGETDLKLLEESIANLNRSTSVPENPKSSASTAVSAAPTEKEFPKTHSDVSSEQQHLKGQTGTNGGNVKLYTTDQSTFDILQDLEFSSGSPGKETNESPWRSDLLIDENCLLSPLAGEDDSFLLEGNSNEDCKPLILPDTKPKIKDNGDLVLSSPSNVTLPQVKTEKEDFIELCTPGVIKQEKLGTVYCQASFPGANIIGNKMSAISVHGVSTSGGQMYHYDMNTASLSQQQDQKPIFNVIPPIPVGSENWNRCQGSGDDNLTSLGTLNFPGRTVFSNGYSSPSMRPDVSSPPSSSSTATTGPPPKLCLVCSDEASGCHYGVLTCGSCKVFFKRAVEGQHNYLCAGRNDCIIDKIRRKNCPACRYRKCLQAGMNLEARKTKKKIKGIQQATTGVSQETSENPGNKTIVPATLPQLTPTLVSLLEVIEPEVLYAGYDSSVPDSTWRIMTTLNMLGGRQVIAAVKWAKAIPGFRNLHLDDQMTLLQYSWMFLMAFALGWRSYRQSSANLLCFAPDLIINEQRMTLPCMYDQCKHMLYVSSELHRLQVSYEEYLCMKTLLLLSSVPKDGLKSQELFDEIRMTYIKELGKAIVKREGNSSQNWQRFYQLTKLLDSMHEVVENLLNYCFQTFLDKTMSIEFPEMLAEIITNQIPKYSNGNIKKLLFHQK
Protocol: In these experiments human monocytes having on their surface receptors for glucocorticoids have been used.
In this experiment the capability of the tested substances to displace ^3H-dexamethasone from the bond sites for the glucorticoids present in human monocytes has been evaluated.
The test tube content has been mixed using a Vortex equipment. The test tubes have then been incubated at 37° C. for 1 hour.
After incubation, the cells have been washed 4 times with a saline solution in phosphate buffer cooled in ice bath (PBS, 0.01 M) and the amount of [^3H]-dexamethasone bound to the cells has been determined by liquid scintigraphy. For each sample the concentration of [^3H]-dexamethasone bound to the cells (femtomoles (fmoles)/ml 10^−15 moles/ml) has been calculated by substracting from the measured values the non specific bond value, and then multiplying by the ratio molarity/radioactivity.
The data reported in the Tables are expressed in fmole [^3H]-dexamethasone/ml.

[2] = assay type: in vivo, Sprague Dawley rats; conditions: 5 mg/Kg/die i.p. for 3 weeks
Protocol: […]. The controls have been treated with the carrier (peanut oil 0.5 ml/rat/die i.p. for 3). At the end of the treatment the average arterial pressure (MABP) and the heart-beat have been controlled in the rats. […]. treated group 348±18, n=9).

[3] = tested on: arthritis caused by collagen; experiment: Anti-arthritic activity in collagen-induced arthritis in rats; assay type: in vivo, Lewis rats; conditions: 4 :moles/kg i.p.; for Hind Legs Articulations Sizes: day 12 to 18, measured on day 18, control 7.03, naive 5.9; for histological analysis of the articulations: day 18; for Leg Average Volume: plethysmometer, control 1.5, naive 1.1; for Hip Functionality Evaluation (Score): score 0 (absence of inflammation) to 3 (serious inflammation), control 1.6; for Hind Legs Articulations Reduction %: with respect to the control group treated only with collagen suspension
Protocol: Lewis female rats weighing 150-200 g fed by a standard diet and with free access to water have been stabulated with cycles of 12 hours light/dark.
To carry out the experiment, the rats were anaesthetized with halothane (day zero), then at the base of the tail, by intradermal injection, a collagen suspension II/Freund's incomplete adjuvant (400: g/rat) was injected, prepared as described hereinafter: nasal bovine collagen of type II (Sigma-Aldrich, 4 mg/ml) has been dissolved in acetic acid (0.01 M) and emulsified with a same volume of cold Freund's incomplete adjuvant (Sigma-Aldrich).
The arthritic pathology became evident between the 11th and the 13th day, with a maximum inflammation at the 18th day in untreated rats.
From the 12th to the 18th day subsequent to the injection, the rats, divided in 3 groups of 10 animals each, have been treated i.p. according to the following protocol:
A fourth group of healthy rats (naive) has been taken as a further reference.
During the treatment with the tested compounds the antiarthritic activity has been evaluated by the following parameters: • average paw volume determined by a plethysmometer; • clinical evaluation of the hip functionality by an arbitrary score from 0 (absence of inflammation) to 3 (serious inflammation, which affects both the hip articulation and the animal paw).
On the 18th day the rats were sacrificed and the diameters of the femoral articulations of the animal hind legs were determined after skin removal; and an histological analysis of the articulations was carried out.
In table 5 there are reported: • the articulation sizes expressed in mm, • the percent reduction of the articulation size calculated with respect to the control rat group treated only with the collagen suspension, • the paw average volume, expressed in ml, daily determined, • the score evaluation of the hip functionality.

primary rat osteoclastes [4] = conditions: 18 h, 1 nM
[5] = tested on: gastric damage caused by ischaemia-reperfusion; experiment: Gastric damage caused by ischaemia-reperfusion in rats; conditions: 28 :moles/kg by os 2 hours before the ischaemia; control 3 ± 1
[6] = tested on: spinal lesions from trauma; experiment: Recovery of motor functions after spinal lesions from trauma in rats (BBB score); conditions: 20 mg/kg s.c. once a day for 5 days
primary rat osteoclastes [7] = experiment: Osteoclastic activity in vitro (reabsorption areas on calcium phosphate plaques); conditions: 1 nM, 18 hours at 37° C.; control 100
[8] = t0 = 24 hours before the inhalation of the tested compound
[9] = t1 = 15 minutes after the inhalation of the tested compound, aerosol for 15 minutes, equimolar doses (635 / 448 :g/ml)

SMILES: CCCC1O[C@@H]2C[C@H]3[C@@H]4CCC5=CC(=O)C=C[C@]5(C)[C@H]4[C@@H](O)C[C@]3(C)[C@]2(C(=O)CO)O1 (stereo partly drawn) [Budesonide, reference compound]
- specific conductance of the airways (sGaw), % change of the basal value after histamine [1, 8]: −28.7 ± 8.8%
- specific conductance of the airways (sGaw), % change of the basal value after histamine [1, 9]: −42.6 ± 15.9%

SMILES: CCCC1O[C@@H]2CC3C4CCC5=CC(=O)C=C[C@]5(C)C4[C@@H](O)C[C@]3(C)[C@]2(C(=O)COC(=O)c2ccc(CO[N+](=O)[O-])cc2)O1 (stereo partly drawn) [Budesonide-NO, Budesonide 21-(4′-nitrooxymethyl)benzoate]
- inhibition of the bronchoconstriction caused by histamine ([1]; aerosol, equimolar doses): 100%
- specific conductance of the airways (sGaw), % change of the basal value after histamine [1, 8]: −29.7 ± 9.8%
- specific conductance of the airways (sGaw), % change of the basal value after histamine [1, 9]: +1.4 ± 7.9%

SMILES: C[C@@H]1CC2C3CCC4=CC(=O)C=C[C@]4(C)[C@@]3(F)[C@@H](O)C[C@]2(C)[C@@]1(O)C(=O)COC(=O)c1ccc(CO[N+](=O)[O-])cc1 (stereo partly drawn) [Dex-Ar—ONO2, Dexamethasone 21-(4′-nitrooxymethyl)benzoate]
- Bound 3H Dexamethasone (glucocorticoid receptor; tested compound 0.1 μM): 1.1 fmol/mL

SMILES: C[C@]12CCC(=O)C=C1CCC1C2[C@@H](O)C[C@@]2(C)C1CC[C@]2(O)C(=O)COC(=O)c1ccc(CO[N+](=O)[O-])cc1 (stereo partly drawn) [Hydr-Ar—ONO2, Hydrocortisone 21-(4′-nitrooxymethyl)benzoate]
- Bound 3H Dexamethasone (glucocorticoid receptor; tested compound 0.3 :M): 17.3 fmol/mL
- Bound 3H Dexamethasone (glucocorticoid receptor; tested compound 10 :M): 0 fmol/mL

SMILES: C[C@]12CCC(=O)C=C1CC[C@@H]1[C@@H]2[C@@H](O)C[C@@]2(C)[C@H]1CC[C@]2(O)C(=O)COC(=O)CCCO[N+](=O)[O-] [Hydr-C4—ONO2, Hydrocortisone-21-(4-nitrooxybutyrate), reference compound]
- Bound 3H Dexamethasone (glucocorticoid receptor; tested compound 0.3 :M): 25.6 fmol/mL
- Bound 3H Dexamethasone (glucocorticoid receptor; tested compound 10 :M): 4.3 fmol/mL

SMILES: C[C@]12C=CC(=O)C=C1CCC1C2[C@@H](O)C[C@@]2(C)C1CC[C@]2(O)C(=O)COC(=O)c1ccc(CO[N+](=O)[O-])cc1 (stereo partly drawn) [Predn-Ar—ONO2, Prednisolone 21-(4′-nitrooxymethyl)benzoate]
- Bound 3H Dexamethasone (glucocorticoid receptor; tested compound 1 μM): 0 fmol/mL
- heart-beat ([2]; control 330±32): 348±18
- average arterial pressure (MABP) ([2]; controls 110±4): 128±7
- Hind Legs Articulations Sizes [3]: 5.7 mm
- histological analysis of the articulations [3]: both the synovial inflammation and the infiltration of inflammatory cells in cartilages were minimal, without compromising the cartilages
- Leg Average Volume [3]: 1.1 mL
- Hip Functionality Evaluation (Score) [3]: 0.1 Score
- Hind Legs Articulations Reduction % [3]: 18.6%
- % Reabsorbed Area with Respect to Control Area (primary rat osteoclastes [4]): 90%
- Lesion Index (LI) [5]: 7 ± 2.1
- Motor Behaviour Evaluation (BBB score) ([6]; 3rd day after trauma, 0 = does not walk, 20 = normal, control 4): 8
- Motor Behaviour Evaluation (BBB score) ([6]; 5th day after trauma, control 6): 14
- Motor Behaviour Evaluation (BBB score) ([6]; 7th day after trauma, control 8): 17

SMILES: C[C@]12C=CC(=O)C=C1CC[C@@H]1[C@@H]2[C@@H](O)C[C@@]2(C)[C@H]1CC[C@]2(O)C(=O)COC(=O)CCCO[N+](=O)[O-] [Predn-C4—ONO2, Prednisolone 21-(4-nitrooxy)butyrate, reference compound]
- Bound 3H Dexamethasone (glucocorticoid receptor; tested compound 1 μM): 9.9 fmol/mL

SMILES: C[C@]12C=CC(=O)C=C1CC[C@@H]1[C@@H]2[C@@H](O)C[C@@]2(C)[C@H]1CC[C@]2(O)C(=O)COC(=O)CN1CCN(CCCO[N+](=O)[O-])CC1.O=C(O)C(F)(F)F.O=C(O)C(F)(F)F [Predn-pyper-C3—ONO2, Prednisolone-21-[2-[4-(3-nitrooxypropyl)piperazin-1-yl]acetate]bis-trifluoromethanacetate]
- Bound 3H Dexamethasone (glucocorticoid receptor; tested compound 1 μM): 2.4 fmol/mL

SMILES: C[C@]12C=CC(=O)C=C1CC[C@@H]1[C@@H]2[C@@H](O)C[C@@]2(C)[C@H]1CC[C@]2(O)C(=O)COC(=O)CN1CCN(CCCO[N+](=O)[O-])CC1.Cl.Cl [Predn-pyper-ONO2, Prednisolone-21-[2-[4-(3-nitrooxypropyl)piperazin-1-yl]acetate]bishydrochloride]
- Bound 3H Dexamethasone (glucocorticoid receptor; tested compound 1 μM): 5.5 fmol/mL

SMILES: C[C@]12C=CC(=O)C=C1CC[C@@H]1[C@@H]2[C@@H](O)C[C@@]2(C)[C@H]1CC[C@]2(O)C(=O)CO [Prednisolone, reference compound]
- Hind Legs Articulations Sizes [3]: 6.1 mm
- histological analysis of the articulations [3]: cartilage ulcerations and synovial inflammation were present
- Leg Average Volume [3]: 1.26 mL
- Hip Functionality Evaluation (Score) [3]: 0.6 Score
- Hind Legs Articulations Reduction % [3]: 12.7%
- Lesion Index (LI) [5]: 44 ± 2.5
- % Reabsorbed Area with Respect to Control Area (primary rat osteoclastes [7]): 148%
